# Key:
# H2 receptor = conditions: cited from earlier work
# H2 -receptor = molecular target: T1, H2 -receptor (Cavia porcellus, UniProt P47747); assay: In vitro H2 antagonism: histamine-induced heart rate increase in isolated guinea-pig right atria; assay type: cell-based; conditions: at 10^-4, 10^-5 M
# T1 construct: The right atria of Males Charles River guinea-pigs; from tissue; host or cells: isolated right atria of male Charles River guinea-pigs
# Description: The right atria of Males Charles River guinea-pigs (250-325 gm), trimmed of extraneous tissues is suspended in a bath at a 1.0 g tension load between an anchor and a Grass Model FT03 force displacement transducer which is coupled to a Beckman Dynograph recorder. The Krebs-Henseleit bath is oxygenated (95% O2 -5% CO2) and maintained at 32° C. After establishing a regular pattern of spontaneous activity over one hour, cumulative doses of histamine are introduced into the bath and the maximal heart rate increase recorded after each addition to establish a response control.
# Then the tissue is washed, returned to rest rates and the compound being treated is introduced into the bath. Thirty minutes later the histamine dose-response study is repeated. The response to histamine in the presence of an antagonist differs from that obtained in the absence of antagonist and the log of the ratio of differences is platted against the log concentration of antagonist for each of several concentrations from which the apparent dissociation constant (pA2) is calculated.
# [1] = system: histamine induced gastric acid secretion; conditions: dog; cited from earlier work
# T1 sequence (P47747 whole entry): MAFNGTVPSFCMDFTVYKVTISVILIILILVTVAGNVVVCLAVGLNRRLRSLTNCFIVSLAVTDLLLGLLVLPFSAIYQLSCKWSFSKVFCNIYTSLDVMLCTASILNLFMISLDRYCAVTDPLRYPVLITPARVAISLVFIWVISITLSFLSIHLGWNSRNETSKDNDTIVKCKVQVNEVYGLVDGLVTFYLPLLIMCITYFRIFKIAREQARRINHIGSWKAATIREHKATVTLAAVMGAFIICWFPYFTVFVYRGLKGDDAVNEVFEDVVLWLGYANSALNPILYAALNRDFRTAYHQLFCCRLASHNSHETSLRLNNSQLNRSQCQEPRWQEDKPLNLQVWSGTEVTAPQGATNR
structure (smiles),measurement,setting,value
C#CCNC(=NC#N)NCCSCc1nc[nH]c1C [Etintidine],Potency as H2 -receptor antagonist relative to cimetidine,H2 receptor,more potent than cimetidine
"CN(C)Cc1ccc(CSCCNC2=NS(=O)(=O)CN2)o1 [Example 1, N-[2-[[[5-[(DIMETHYLAMINO)METHYL]-2-FURANYL]METHYL]THIO]ETHYL]-4,5-DIHYDRO- 1,2,4-THIADIAZOL-3-AMINE 1,1-DIOXIDE]",H2 antagonism (activity at stated concentrations),H2 -receptor,active
CNC(=C[N+](=O)[O-])NCCSCc1ccc(CN(C)C)o1 [Ranitidine],Potency relative to cimetidine in blocking histamine induced gastric acid secretion,[1],about 5 times
CNC(=NC#N)NCCSCc1csc(N=C(N)N)n1 [Tiotidine],Potency relative to cimetidine in H2 receptor antagonism,H2 receptor; both in vitro and in vivo studies,at least ten

# Source: patent publication US4461900A, “4,5-Dihydrothiadiazole 1,1-dioxide derivatives” (American Home Products Corporation, priority 1983, dated 1984)
